Results from publication PMC13083723 (Patterns, 2026).
Counter-ions that a name gives are not always drawn. Like-named read-outs stand apart in the source and are kept apart here.

Tests used:
Vero-E6 cells = experiment: cells; format: cell-based
SARS-CoV-2 [1] = settings: cited from earlier work; for CaCo2 CPE inhibition %: Caco-2, 20 µM; for CaCo2 CPE assay (active): Caco-2
SARS-CoV-2 [2] = settings: cited from earlier work; for Vero-E6 CPE inhibition %: 10 µM
A549-ACE2 cells = experiment: cells; format: cell-based; settings: A549-ACE2, 24 h, read-out: PLD_Effect(%) A549-ACE2
[3] = cited from earlier work
[4] = Chlorocebus sabaeus, Vero C1008, 24 h; read-out: PLD Effect in % 5 µM
[5] = Chlorocebus sabaeus, Vero C1008, 24 h; read-out: PLD Effect in % 10 µM
[6] = Chlorocebus sabaeus, Vero C1008, 24 h; read-out: PLD Effect in % 20 µM
[7] = Chlorocebus sabaeus, Vero C1008; read-out: PLD EC50
[8] = Chlorocebus sabaeus, Vero C1008, read-out: PLD EC50 µM

Compound | PLD Effect in % 5 µM (Vero-E6 cells; 5 µM) | PLD Effect in % 10 µM (Vero-E6 cells; 10 µM) | PLD Effect in % 20 µM (Vero-E6 cells; 20 µM) | EC50 (Vero-E6 cells; read-out: PLD EC50) [µM] | CaCo2 CPE inhibition % (SARS-CoV-2 [1]) | Vero-E6 CPE inhibition % (SARS-CoV-2 [2]) | activation at 5 µM (Vero-E6 cells; [4]) [%] | activation at 10 µM (Vero-E6 cells; [5]) [%] | activation at 20 µM (Vero-E6 cells; [6]) [%] | also measured
CC(C)[C@H]1c2ccc(F)cc2CC[C@@]1(CCN(C)CCCc1nc2ccccc2[nH]1)OC(=O)C1CC1 [NNC-55-0396, reference compound] | 87.06% | 154.81% | -43.08% | 6.28 | 58.09% | 0% |  |  |  | EC50 (SARS-CoV-2 [2]; read-out: Vero-E6 EC50): 8210 nM
COc1cc2c(Nc3ccc(Br)cc3F)ncnc2cc1OCC1CCN(C)CC1 [Vandetanib (ZD6474), Vandetanib, reference compound] |  |  |  |  | 51.24 | 0.29 | 129 | 136 | -32.7 | EC50 (Vero-E6 cells; [7]): 1.05 µM
CN1C[C@H](CNC(=O)OCc2ccccc2)C[C@@H]2c3cccc4c3c(cn4C)C[C@H]21 [metergoline, reference compound] |  |  |  |  | 54.65% | 0.05% | 61 | 73 | 103 | 
CCN(CC)CC1CCN(c2ncc3ncnc(Nc4ccc(F)c(Cl)c4)c3n2)CC1 [BIBU-1361, reference compound] | 160.51% | 180.15% | -42.53% | 0.63 | 78.51% | -0.24% |  |  |  | 
COc1ccc(CCN(C)CCCOc2ccc(S(=O)(=O)c3c(C(C)C)c4ccccc4n3C)cc2)cc1OC [SR-33805 oxalate, reference compound] | 54.44% | 86.07% | 137.08% | 9.26 | 67.72% | 0.02 |  |  |  | 
O=C(CCCN1CCC2(CC1)C(=O)N(Cc1cccc(F)c1)CN2c1ccccc1)c1ccc(F)cc1 [3'-fluorobenzylspiperone, reference compound] |  |  |  |  | 102.38 |  |  |  |  | PLD induction assay (active) (Vero-E6 cells): active; activation at 5 µM (Vero-E6 cells; Chlorocebus sabaeus, Vero C1008, 24 h, read-out: PLD Effect in % 5 µM): 61.8%; activation at 10 µM (Vero-E6 cells; Chlorocebus sabaeus, Vero C1008, 24 h, read-out: PLD Effect in % 10 µM): 41.3%; activation at 20 µM (Vero-E6 cells; Chlorocebus sabaeus, Vero C1008, 24 h, read-out: PLD Effect in % 20 µM): 8.92%; EC50 (Vero-E6 cells; [8]): 10.3 µM; CaCo2 CPE assay (active) (SARS-CoV-2 [1]): active
CCCCN(CCCC)CCC(O)c1cc2c(Cl)cc(Cl)cc2c2cc(C(F)(F)F)ccc12 (stereo not drawn) [halofantrine HCl, reference compound] |  |  |  |  | 91.38% | 0.17% | 79.8 | 87 | 114 | EC50 (Vero-E6 cells; [8]): 1.66 µM
COc1ccc(NC(=O)c2ccc(-c3ccc(-c4noc(C)n4)cc3C)cc2)cc1N1CCN(C)CC1 [GR-127935, reference compound] |  |  |  |  | 53.73% | -0.76% | 136 | 162 | -40.2 | EC50 (Vero-E6 cells; [8]): 1.12 µM
COc1ccccc1C1(O)CCN(CCCn2c3ccccc3c3ccccc32)CC1 [NNC-05-2090, reference compound] | 128.41% | 178.14% | 118.98% | 4.91 | 71.83% | -0.32% |  |  |  | 
CN(C)C(=O)C(CCN1CCC(O)(c2ccc(Cl)cc2)CC1)(c1ccccc1)c1ccccc1 [loperamide hydrochloride, reference compound] |  |  |  |  | 58.93% | 5.03% | 55 | 75.4 | 86.1 | 
COc1cc(C)c2c(Oc3cccc(C(F)(F)F)c3)c(OC)cc(NC(C)CCCN)c2n1 (stereo not drawn) [tafenoquine, reference compound] | toxic | toxic | toxic |  | toxic | toxic |  |  |  | PLD EC50 µM (Vero-E6 cells): toxic; CaCo2 EC50 µM (SARS-CoV-2 [1]): toxic; Vero-E6 EC50 µM (SARS-CoV-2 [2]): toxic
COc1ccc(NC(=O)c2ccc(-c3ccc(-c4noc(C)n4)cc3C)cc2)cc1OCCN(C)C [SB-216641, reference compound] | 93.22% | 104.74% | -42.60% | 1.19 | 57.65% | -0.22% |  |  |  | 
C[C@@H](NCCCc1cccc(C(F)(F)F)c1)c1cccc2ccccc12 [AMG-073 HCl, cinacalcet hydrochloride, reference compound] |  |  |  |  |  | -0.15 | 70.8 | 79.5 | 253 | activation at 10 µM (A549-ACE2 cells): 104%; activation at 10 µM (Vero-E6 cells; Chlorocebus sabaeus, Vero C1008, 24 h, read-out: PLD_Effect(%) VERO-E6): 61.8%; EC50 (Vero-E6 cells; [7]): 18.6 µM; pchembl_value (AC50) [3]: 6.14; AC50 ([3]; read-out: AC50 (value)): 730 nM
O=C(NC1CCN(CCCCC2(C(=O)NCC(F)(F)F)c3ccccc3-c3ccccc32)CC1)c1ccccc1-c1ccc(C(F)(F)F)cc1 [Lomitapide, reference compound] |  |  |  |  | 77.37% | -0.39% | 82.8 | 169 | -28.6 | 
COc1cc(C(=O)NC2CCN(C)CC2)c(F)cc1Nc1ncc2c(n1)N(C1CCCC1)CC(F)(F)C(=O)N2C [TAK-960, reference compound] |  |  |  |  | 91.64% | 2.67% |  |  |  | 
CN(C)CC/C=C1/c2ccccc2Sc2ccc(Cl)cc21 [chlorprothixene hydrochloride, reference compound] |  |  |  |  | 55.65% | 0.27% | 124 | 113 | 192 | EC50 (Vero-E6 cells; [8]): 2.36 µM
COC(=O)C1=C(C)NC(C)=C(C(=O)NCCCN2CCC(c3ccccc3)(c3ccccc3)CC2)C1c1ccc([N+](=O)[O-])cc1 (stereo not drawn) [SNAP-5089, reference compound] |  |  |  |  | 72.63% | -0.12% | 66.5 | 78.4 | 24.9 | EC50 (Vero-E6 cells; [8]): 2.01 µM
CC(C)c1ccc2c(c1)CC[C@H]1[C@](C)(CN)CCC[C@]21C [Lylamine, reference compound] | 104.48% | 133.55% | -41.01% |  | 76.43% | -0.36% |  |  |  | 
CCN1CCN(Cc2ccc(C(=O)Nc3ccc(C)c(Oc4ccc5c(c4)CC(=O)N5)c3)cc2C(F)(F)F)CC1 [DDR1-IN-1, reference compound] |  |  |  |  | 77.58% | -0.37% | 55.7 | 75.8 | 21.8 | 
OCCNC1CCCc2c1[nH]c1ccc(-c3ccccc3)cc21 (stereo not drawn) [casin, reference compound] | 116.35% | 193.97% | 134.63% | 3.31 | 71.19% |  |  |  |  | 
CCN(CC)CCO[C@H]1CC[C@@]2(C)C(=CC[C@@H]3[C@@H]2CC[C@]2(C)C(=O)CC[C@@H]32)C1 [U-18666A, reference compound] | 84.91% | 98.22% | 112.55% | 1.77 | 77.44% |  |  |  |  | 
Cc1ccc(NC(=O)c2ccc(CN3CCN(C)CC3)cc2)cc1Nc1nc(-c2cccnc2)cs1 [masitinib (AB1010), masitinib, reference compound] |  |  |  |  | 107.90% |  | 43.1 | 45.2 | 53.3 | PLD induction assay (active) (Vero-E6 cells): active; EC50 (Vero-E6 cells; [7]): 2.57 µM; CaCo2 CPE assay (active) (SARS-CoV-2 [1]): active
